What was measured:
Estrogen receptor beta [1] = molecular target: T1, Estrogen receptor beta (Homo sapiens, UniProt Q92731); test: Antagonist activity at ER-beta (unknown origin) transfected in HEK293T cells assessed as inhibition of transcriptional activity after 24 hrs by luciferase reporter gene assay relative to 17-beta estradiol; type: cell-based; details: HEK-293T
Vero = test: cells; type: ADME, cell-based; details: Chlorocebus sabaeus, 72 h
MCF7 = test: cells; type: functional, cell-based; details: Homo sapiens, MCF7, 72 h
[2] = molecular target: T2, Estrogen receptor (Homo sapiens) (UniProt P03372); test: Agonist activity at ER-alpha (unknown origin) transfected in HEK293T cells assessed as stimulation of transcriptional activity after 24 hrs by luciferase reporter gene assay relative to 17-beta estradiol; type: cell-based; details: HEK-293T
T2 sequence (whole entry): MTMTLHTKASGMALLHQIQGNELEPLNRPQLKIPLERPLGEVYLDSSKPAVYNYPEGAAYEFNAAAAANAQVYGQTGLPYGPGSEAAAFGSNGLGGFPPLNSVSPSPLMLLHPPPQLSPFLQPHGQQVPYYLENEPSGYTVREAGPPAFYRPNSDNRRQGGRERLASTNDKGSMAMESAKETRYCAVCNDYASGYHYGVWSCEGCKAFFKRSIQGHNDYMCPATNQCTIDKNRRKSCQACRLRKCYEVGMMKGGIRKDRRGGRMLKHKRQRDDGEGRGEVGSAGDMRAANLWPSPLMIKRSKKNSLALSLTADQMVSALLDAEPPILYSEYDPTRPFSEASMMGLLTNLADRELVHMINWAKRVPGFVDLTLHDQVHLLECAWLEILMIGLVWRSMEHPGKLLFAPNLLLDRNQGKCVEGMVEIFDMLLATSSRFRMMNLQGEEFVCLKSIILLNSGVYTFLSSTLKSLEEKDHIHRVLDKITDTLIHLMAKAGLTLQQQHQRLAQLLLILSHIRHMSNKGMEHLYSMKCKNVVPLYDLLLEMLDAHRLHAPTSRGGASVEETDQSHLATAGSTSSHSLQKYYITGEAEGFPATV

Estrogen receptor beta [3] = molecular target: T1, Estrogen receptor beta; test: Agonist activity at ER-beta (unknown origin) transfected in HEK293T cells assessed as stimulation of transcriptional activity after 24 hrs by luciferase reporter gene assay; type: cell-based, HEK-293T
DU-145 = test: cells; type: functional, cell-based; details: Homo sapiens, DU-145, 72 h
[4] = molecular target: T2, Estrogen receptor (Homo sapiens); test: Antagonist activity at ER-alpha (unknown origin) transfected in HEK293T cells assessed as inhibition of transcriptional activity after 24 hrs by luciferase reporter gene assay relative to 17-beta estradiol; type: cell-based; details: HEK-293T
Estrogen receptor beta [5] = molecular target: T1, Estrogen receptor beta; test: Agonist activity at ER-beta (unknown origin) transfected in HEK293T cells assessed as stimulation of transcriptional activity after 24 hrs by luciferase reporter gene assay relative to 17-beta estradiol; type: cell-based; details: HEK-293T
Estrogen receptor = molecular target: T3, Estrogen receptor (Homo sapiens, UniProt P03372); test: Binding affinity to human ER-alpha ligand binding domain after 2 hrs by competitive fluorometric binding assay
T3 sequence (P03372 whole entry): T2 sequence (whole entry)

Estrogen receptor beta [6] = molecular target: T1, Estrogen receptor beta; test: Binding affinity to human ER-beta ligand binding domain after 2 hrs by competitive fluorometric binding assay

T1 sequence (Q92731 whole entry): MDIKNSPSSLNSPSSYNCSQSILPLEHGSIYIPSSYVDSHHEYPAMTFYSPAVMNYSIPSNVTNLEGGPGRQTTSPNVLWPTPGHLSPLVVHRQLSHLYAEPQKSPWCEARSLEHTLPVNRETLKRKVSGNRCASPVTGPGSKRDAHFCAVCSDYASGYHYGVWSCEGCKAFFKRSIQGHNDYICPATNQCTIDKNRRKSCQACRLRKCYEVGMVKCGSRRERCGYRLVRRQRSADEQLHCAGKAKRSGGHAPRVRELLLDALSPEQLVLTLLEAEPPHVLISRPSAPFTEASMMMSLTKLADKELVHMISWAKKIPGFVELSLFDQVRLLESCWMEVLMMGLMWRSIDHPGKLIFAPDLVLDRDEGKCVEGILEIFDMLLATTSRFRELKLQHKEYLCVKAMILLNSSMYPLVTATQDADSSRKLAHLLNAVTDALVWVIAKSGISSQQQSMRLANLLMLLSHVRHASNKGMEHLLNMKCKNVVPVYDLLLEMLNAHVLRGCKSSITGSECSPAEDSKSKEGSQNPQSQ

SMILES | Efficacy (Estrogen receptor beta [1]) | IC50 (Vero) | IC50 (MCF7) | Efficacy [2] | EC50 (Estrogen receptor beta [3]) | IC50 (DU-145) | Efficacy [4] | Efficacy (Estrogen receptor beta [5]) | Ki (Estrogen receptor) | Ki (Estrogen receptor beta [6])
O=C(O)CCCCCCC(=O)Nc1cccc(OS(=O)(=O)C2CC3OC2C(c2ccc(O)cc2)=C3c2ccc(O)cc2)c1 (stereo not given) | 102% | > 100 µM | > 100 µM | 51% | 2.1 µM | > 100 µM | 122% | 47% |  | 
O=C(CCCCCCC(=O)Nc1ccc(C2=C(c3ccc(O)cc3)C3CC(S(=O)(=O)Oc4ccccc4)C2O3)cc1)NO (racemic) | 92% | > 100 µM | 30.1 µM | 20% | 0.002 µM | 37.7 µM | 77% | 38% | > 5 µM | 
Cc1ccc(OS(=O)(=O)C2CC3OC2C(c2ccc(NC(=O)CCCCCCC(=O)NO)cc2)=C3c2ccc(O)cc2)cc1 (racemic) | 95% | > 100 µM | 40.4 µM | -28% | 0.038 µM | 42.9 µM | 116% | 52% | > 5 µM | > 5 µM
Cc1ccccc1OS(=O)(=O)C1CC2OC1C(c1ccc(NC(=O)CCCCCCC(=O)NO)cc1)=C2c1ccc(O)cc1 (racemic) | 94% | > 100 µM | 24.1 µM | -20% | 0.203 µM | 30.7 µM | 126% | 27% | > 5 µM | 2.12 µM
COc1ccccc1OS(=O)(=O)C1CC2OC1C(c1ccc(NC(=O)CCCCCCC(=O)NO)cc1)=C2c1ccc(O)cc1 (racemic) | 74% | > 100 µM | 25.8 µM | 9% | 0.023 µM | 44.7 µM | 164% | 53% | > 5 µM | 
O=C(CCCCCCC(=O)Nc1ccc(C2=C(c3ccc(O)cc3)C3CC(S(=O)(=O)Oc4ccc(F)cc4)C2O3)cc1)NO (racemic) | 86% | > 100 µM | 23.4 µM |  | 0.002 µM | 47.3 µM | 135% | 49% | > 5 µM | 3.4 µM

Source: ChEMBL document CHEMBL3588800, “Novel Bioactive Hybrid Compound Dual Targeting Estrogen Receptor and Histone Deacetylase for the Treatment of Breast Cancer” (J Med Chem, 2015)
